Experimental data taken from US9108983B2, “Pyrrole compounds, a process for their preparation and pharmaceutical compositions containing them” (LES LABORATOIRES SERVIER, priority 2013, dated 2015).
Counter-ions that a name gives are not always drawn. Like-named read-outs stand apart in the source and are kept apart here.

Tests used:
[1] = test system: RS4;11 leukaemia tumour line; assay: In vitro cytotoxicity (Microculture Tetrazolium Assay); type: cell-based; settings: RS4;11 cells, exposed for 48 hours, cell viability, read-out: IC50 (nM) MTT RS4;11
Protocol: The cytotoxicity studies were carried out on the RS4;11 leukaemia tumour line.
The cells are distributed onto microplates and exposed to the test compounds for 48 hours.
The cell viability is then quantified by a colorimetric assay, the Microculture Tetrazolium Assay (Cancer Res., 1987, 47, 939-942).

Bcl-2 protein = Bcl-2 protein (histag-Bcl-2, UniProtKB P10415) (Homo sapiens (Human), UniProt P10415); assay: Inhibition of Bcl-2 by the fluorescence polarisation technique; type: binding; settings: incubation for 2 hours, read-out: IC50 (nM) Bcl-2 FP
Method in brief: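 Fluorescence polarisation competition: His-tagged Bcl-2 (2.50×10^−8 M final) with fluorescein-labelled peptide (1.00×10^−8 M final) in 10 mM Hepes, 150 mM NaCl, 0.05% Tween20, pH 7.4. Increasing compound concentrations were added. Polarisation was read after 2 h incubation.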

Bcl-2 protein, sequence (P10415 whole entry): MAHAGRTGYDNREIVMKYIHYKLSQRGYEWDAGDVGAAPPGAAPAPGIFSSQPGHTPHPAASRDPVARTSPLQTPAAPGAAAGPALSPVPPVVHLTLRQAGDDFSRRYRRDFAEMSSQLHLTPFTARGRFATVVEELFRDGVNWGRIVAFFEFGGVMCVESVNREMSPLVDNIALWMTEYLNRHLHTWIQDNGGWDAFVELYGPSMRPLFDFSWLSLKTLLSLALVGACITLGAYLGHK

Row | Compound | IC50 ([1]; Homo sapiens, RS4-11, 48 h) [nM] | IC50 (Bcl-2 protein) [nM] | IC50 [1] [nM]
1 | Cc1c(C(=O)N(c2ccc(O)cc2)c2cc(C#N)n(C)c2)cc(-c2cc(Cl)ccc2C(=O)N2Cc3ccccc3C[C@H]2CN2CCOCC2)n1C [Example 108, 5-(5-Chloro-2-{[(3S)-3-(morpholin-4-ylmethyl)-3,4-dihydroisoquinolin-2(1H)-yl]carbonyl}phenyl)-N-(5-cyano-1-methyl-1H-pyrrol-3-yl)-N-(4-hydroxyphenyl)-1,2-dimethyl-1H-pyrrole-3-carboxamide hydrochloride] | 15.4 | 3.9 | –
2 | Cc1c(N(C(=O)c2cc(-c3cc(Cl)ccc3C(=O)N3Cc4ccccc4C[C@H]3CCCN3CCOCC3)n(C)c2C)c2ccc(O)cc2)cc(C#N)n1C [Example 412, 5-(5-Chloro-2-{[(3R)-3-[3-(morpholin-4-yl)propyl]-3,4-dihydroisoquinolin-2(1H)-yl]carbonyl}phenyl)-N-(5-cyano-1,2-dimethyl-1H-pyrrol-3-yl)-N-(4-hydroxyphenyl)-1,2-dimethyl-1H-pyrrole-3-carboxamide hydrochloride] | 0.398 | 3.1 | –
3 | Cc1c(C(=O)N(c2ccc(O)cc2)c2cnn(C3CCOC3)c2)cc(-c2cc(Cl)ccc2C(=O)N2Cc3ccccc3C[C@H]2CCCN2CCOCC2)n1C (stereo partly drawn) [Example 460, 5-(5-Chloro-2-{[(3R)-3-[3-(morpholin-4-yl)propyl]-3,4-dihydroisoquinolin-2(1H)-yl]carbonyl}phenyl)-N-(4-hydroxyphenyl)-1,2-dimethyl-N-[1-(tetrahydrofuran-3-yl)-1H-pyrazol-4-yl]-1H-pyrrole-3-carboxamide hydrochloride] | 22.9 | 2.8 | –
4 | 5-(5-Fluoro-4-methoxy-2-{[(3S)-3-(morpholin-4-ylmethyl)-3,4-dihydroisoquinolin-2(1H)-yl]carbonyl}phenyl)-N-(4-hydroxyphenyl)-1,2-dimethyl-N-(1-methyl-2,3-dihydro-1H-pyrrolo[2,3-b]pyridin-5-yl)-1H-pyrrole-3-carboxamide hydrochloride [Example 210] | – | 8.8 | 47.2
5 | CN1CCN(C[C@@H]2Cc3ccccc3CN2C(=O)c2ccc(Cl)cc2-c2cc(C(=O)N(c3ccc(O)cc3)c3ccc4[nH]ccc4c3)cn2C)CC1 [Example 3, 5-(5-Chloro-2-{[(3S)-3-[(4-methylpiperazin-1-yl)methyl]-3,4-dihydroisoquinolin-2(1H)-yl]carbonyl}phenyl)-N-(4-hydroxyphenyl)-N-(1H-indol-5-yl)-1-methyl-1H-pyrrole-3-carboxamide] | 94.9 | 24.6 | –
6 | Cc1c(C(=O)N(C)c2ccc(O)cc2)cc(-c2ccc(CNC(=O)NCc3ccccc3)cc2C(=O)N2Cc3ccccc3C[C@H]2C)n1C [Example 37, 5-(4-{[(Benzylcarbamoyl)amino]methyl}-2-{[(3R)-3-methyl-3,4-dihydroisoquinolin-2(1H)-yl]carbonyl}phenyl)-N-(4-hydroxyphenyl)-N,1,2-trimethyl-1H-pyrrole-3-carboxamide] | > 600 | 60.4 | –
7 | COC(=O)c1ccnc(N(C(=O)c2cc(-c3cc(Cl)ccc3C(=O)N3Cc4ccccc4C[C@H]3CN3CCOCC3)n(C)c2C)c2ccc(O)cc2)c1 [Example 400, Methyl 2-[{[5-(5-chloro-2-{[(3S)-3-(morpholin-4-ylmethyl)-3,4-dihydroisoquinolin-2(1H)-yl]carbonyl}phenyl)-1,2-dimethyl-1H-pyrrol-3-yl]carbonyl}(4-hydroxyphenyl)amino]pyridine-4-carboxylate hydrochloride] | 469 | 49 | –
8 | Cc1c(C(=O)N(c2ccc(O)cc2)c2cnn(C)c2)cc(-c2cc(F)c(O)cc2C(=O)N2Cc3ccccc3C[C@H]2C)n1C [Example 68, 5-(5-Fluoro-4-hydroxy-2-{[(3R)-3-methyl-3,4-dihydroisoquinolin-2(1H)-yl]carbonyl}phenyl)-N-(4-hydroxyphenyl)-1,2-dimethyl-N-(1-methyl-1H-pyrazol-4-yl)-1H-pyrrole-3-carboxamide] | 20.7 | 2.1 | –
9 | Cc1c(C(=O)N(c2ccc(O)cc2)c2cnc3c(cnn3C)c2)cc(-c2cc(F)ccc2C(=O)N2Cc3ccccc3C[C@H]2CN2CCOCC2)n1C [Example 451, 5-(5-Fluoro-2-{[(3S)-3-(morpholin-4-ylmethyl)-3,4-dihydroisoquinolin-2(1H)-yl]carbonyl}phenyl)-N-(4-hydroxyphenyl)-1,2-dimethyl-N-(1-methyl-1H-pyrazolo[3,4-b]pyridin-5-yl)-1H-pyrrole-3-carboxamide hydrochloride] | 102 | 2.9 | –
10 | COc1ncc(N(C(=O)c2cc(-c3cc4c(cc3C(=O)N3Cc5ccccc5C[C@H]3C)OCO4)n(C)c2C)c2ccc(O)cc2)cn1 [Example 48, N-(4-Hydroxyphenyl)-N-(2-methoxypyrimidin-5-yl)-1,2-dimethyl-5-(6-{[(3R)-3-methyl-3,4-dihydroisoquinolin-2(1H)-yl]carbonyl}-1,3-benzodioxol-5-yl)-1H-pyrrole-3-carboxamide] | 14.9 | 4.4 | –
11 | Cc1c(C(=O)N(c2ccc(O)cc2)c2ccc(F)c(C#N)c2)cc(-c2cc(Cl)ccc2C(=O)N2Cc3ccccc3C[C@H]2CN2CCOCC2)n1C [Example 401, 5-(5-Chloro-2-{[(3S)-3-(morpholin-4-ylmethyl)-3,4-dihydroisoquinolin-2(1H)-yl]carbonyl}phenyl)-N-(3-cyano-4-fluorophenyl)-N-(4-hydroxyphenyl)-1,2-dimethyl-1H-pyrrole-3-carboxamide hydrochloride] | 24.3 | 8 | –
12 | COCCc1c(C(=O)N(c2ccc(O)cc2)c2cnc3c(ccn3C)c2)cc(-c2cc3c(cc2C(=O)N2Cc4ccccc4C[C@H]2CN2CCOCC2)OCO3)n1C [Example 88, N-(4-Hydroxyphenyl)-2-(2-methoxyethyl)-1-methyl-N-(1-methyl-1H-pyrrolo[2,3-b]pyridin-5-yl)-5-(6-{[(3S)-3-(morpholin-4-ylmethyl)-3,4-dihydroisoquinolin-2(1H)-yl]carbonyl}4,3-benzodioxol-5-yl)-1H-pyrrole-3-carboxamide hydrochloride] | – | 15.9 | 69.6
13 | COc1ccc(C(=O)N2Cc3ccccc3C[C@H]2CN2CCOCC2)c(-c2cc(C(=O)N(c3ccccc3)c3ccc(O)cc3)c(C)n2C)c1 [Example 19, N-(4-Hydroxyphenyl)-5-(5-methoxy-2-{[(3S)-3-(morpholin-4-ylmethyl)-3,4-dihydroisoquinolin-2(1H)-yl]carbonyl}phenyl)-1,2-dimethyl-N-phenyl-. H-pyrrole-3-carboxamide hydrochloride] | – | 6 | 65.5
14 | COc1ccc(N(C(=O)c2cc(-c3cc(F)ccc3C(=O)N3Cc4ccccc4C[C@H]3CN3CCOCC3)n(C)c2C)c2ccc(O)cc2)cc1C#N [Example 427, N-(3-Cyano-4-methoxyphenyl)-5-(5-fluoro-2-{[(3S)-3-(morpholin-4-ylmethyl)-3,4-dihydroisoquinolin-2(1H)-yl]carbonyl}phenyl)-N-(4-hydroxyphenyl)-1,2-dimethyl-1H-pyrrole-3-carboxamide hydrochloride] | 23.3 | 2.2 | –
15 | Cc1c(C(=O)N(c2ccc(O)cc2)c2cnn(C3CC3)c2)cc(-c2cc(F)ccc2C(=O)N2Cc3ccccc3C[C@H]2CN2CCOCC2)n1C [Example 214, N-(1-Cyclopropyl-1H-pyrazol-4-yl)-5-(5-fluoro-2-{[(3S)-3-(morpholin-4-ylmethyl)-3,4-dihydroisoquinolin-2(1H)-yl]carbonyl}phenyl)-N-(4-hydroxyphenyl)-1,2-dimethyl-1H-pyrrole-3-carboxamide hydrochloride] | 236 | 6.3 | –
16 | CN1CCN(C[C@@H]2Cc3ccccc3CN2C(=O)c2ccc(Cl)cc2-c2cc(C(=O)N(c3ccc(O)cc3)c3ccc4c(ccn4C)c3)cn2C)CC1 [Example 5, 5-(5-Chloro-2-{[(3S)-3-[(4-methylpiperazin-1-yl)methyl]-3,4-dihydroisoquinolin-2(1H)-yl]carbonyl}phenyl)-N-(4-hydroxyphenyl)-1-methyl-N-(1-methyl-1H-indol-5-yl)-1H-pyrrole-3-carboxamide hydrochloride] | 44.8 | 21.2 | –
17 | Cc1c(C(=O)N(c2ccc(O)cc2)c2ccc3c(ccn3C)n2)cc(-c2cc(Cl)ccc2C(=O)N2Cc3ccccc3C[C@H]2CN2CCOCC2)n1C [Example 391, 5-(5-Chloro-2-{[(3S)-3-(morpholin-4-ylmethyl)-3,4-dihydroisoquinolin-2(1H)-yl]carbonyl}phenyl)-N-(4-hydroxyphenyl)-1,2-dimethyl-N-(1-methyl-1H-pyrrolo[3,2-b]pyridin-5-yl)-1H-pyrrole-3-carboxamide hydrochloride] | 255 | 30.3 | –
18 | Cc1c(C(=O)N(C)c2ccc(O)cc2)cc(-c2ccc(CNC(=O)COc3ccccc3)cc2C(=O)N2Cc3ccccc3C[C@H]2C)n1C [Example 35, N-(4-Hydroxyphenyl)-N,1,2-trimethyl-5-(2-{[(3R)-3-methyl-3,4-dihydroisoquinolin-2(1H)-yl]carbonyl}-4-{[(phenoxyacetyl)amino]methyl}phenyl)-1H-pyrrole-3-carboxamide] | 560 | 50 | –
19 | Cc1c(C(=O)N(c2ccc(O)cc2)c2cnc3c(ccn3C)c2)cc(-c2cc3c(cc2C(=O)N2Cc4ccccc4C[C@H]2CN2CCOCC2)OCO3)n1C [Example 44, N-(4-Hydroxyphenyl)-1,2-dimethyl-N-(1-methyl-1H-pyrrolo[2,3-b]-pyridin-5-yl)-5-(6-{[(3S)-3-(morpholin-4-ylmethyl)-3,4-dihydroisoquinolin-2(1H)-yl]carbonyl}-1,3-benzodioxol-5-yl)-1H-pyrrole-3-carboxamide hydrochloride] | 5.41 | 3 | –
